In ChEMBL document CHEMBL5053490, “Fusaricide is a Novel Iron Chelator that Induces Apoptosis through Activating Caspase-3” (J Nat Prod, 2021):
Active and inactive are the calls of the source. The rule behind the calls is not given here.

Experiments:
NCI-H460 [1] = test: Cytotoxicity against human NCI-H460 cells assessed as reduction in cell viability incubated for 24 hrs by CCK8 assay; assay type: functional, cell-based; conditions: NCI-H460, 24 h
NCI-H460 [2] = test: Cytotoxicity against human NCI-H460 cells assessed as reduction in cell viability incubated for 48 hrs by CCK8 assay; assay type: functional, cell-based; conditions: NCI-H460, 48 h
NCI-H1299 [3] = test: Cytotoxicity against human NCI-H1299 cells assessed as cell viability rescue at 10 uM incubated for 24 hrs in presence of Fecl3 by CCK8 assay; assay type: functional, cell-based
NCI-H226 [4] = test: Cytotoxicity against human NCI-H226 cells assessed as cell viability rescue at 10 uM incubated for 24 hrs in presence of Fecl3 by CCK8 assay; assay type: functional, cell-based
NCI-H460 [5] = test: Cytotoxicity against human NCI-H460 cells assessed as cell viability rescue at 10 uM incubated for 24 hrs in presence of Fecl3 by CCK8 assay; assay type: functional, cell-based
NCI-H460 [6] = test: Induction of apoptosis in human NCI-H460 cells assessed as early apoptotic cells at 10 uM incubated for 12 hrs by AnnexinV-FITC/propidium iodide staining based flow cytometry (reference value: 0.74%); assay type: functional
NCI-H460 [7] = test: Induction of apoptosis in human NCI-H460 cells assessed as increase in cleaved PARP measured upto 48 hrs by Western blot analysis; assay type: functional, cell-based; conditions: TDE = time-dependent effect
MRC5 = test: Cytotoxicity against human MRC5 cells up to 100 uM assessed as reduction in cell viability incubated for 48 hrs by CCK8 assay; assay type: cell-based; conditions: mrc5, 48 h
NCI-H460 [8] = test: Induction of apoptosis in human NCI-H460 cells assessed as necrotic cells at 10 uM incubated for 36 hrs by AnnexinV-FITC/propidium iodide staining based flow cytometry (reference value: 1.28%); assay type: functional
NCI-H460 [9] = test: Induction of apoptosis in human NCI-H460 cells assessed as late apoptotic cells at 10 uM incubated for 48 hrs by AnnexinV-FITC/propidium iodide staining based flow cytometry (reference value: 7.54%); assay type: functional
NCI-H460 [10] = test: Induction of apoptosis in human NCI-H460 cells assessed as late apoptotic cells at 10 uM incubated for 12 hrs by AnnexinV-FITC/propidium iodide staining based flow cytometry (reference value: 7.54%); assay type: functional
NCI-H460 [11] = test: Downregulation of FTH level in human NCI-H460 cells at 10 uM by Western blot analysis; assay type: functional, cell-based
NCI-H460 [12] = test: Induction of apoptosis in human NCI-H460 cells assessed as necrotic cells at 10 uM incubated for 12 hrs by AnnexinV-FITC/propidium iodide staining based flow cytometry (reference value: 1.28%); assay type: functional
NCI-H460 [13] = test: Induction of apoptosis in human NCI-H460 cells assessed as early apoptotic cells at 10 uM incubated for 24 hrs in presence of FeCl3 by AnnexinV-FITC/propidium iodide staining based flow cytometry (reference value: 1.69%); assay type: functional
NCI-H460 [14] = test: Induction of cell cycle arrest in human NCI-H460 cells assessed as increase in p-53 expression at 10 uM after 24 hrs by Western blot analysis; assay type: functional, cell-based
NCI-H1299 [15] = test: Reversal of cell death in human NCI-H1299 cells at up to 40 uM measured after 24 hrs by in presence of FeCl3; assay type: functional, cell-based
NCI-H460 [16] = test: Induction of cell cycle arrest in human NCI-H460 cells assessed as accumulation at sub S phase at 10 uM after 12 hrs by flow cytometric analysis (reference value: 25.7%); assay type: functional
NCI-H460 [17] = test: Effect on labile iron pool in human NCI-H460 cells assessed as […] at 10 uM by calcein-AM staining based flow cytometry analysis relative to control; assay type: functional, cell-based
NCI-H460 [18] = test: Induction of apoptosis in human NCI-H460 cells assessed as late apoptotic cells at 10 uM incubated for 24 hrs in presence of FeCl3 by AnnexinV-FITC/propidium iodide staining based flow cytometry (reference value: 6.09%); assay type: functional
NCI-H460 [19] = test: Induction of apoptosis in human NCI-H460 cells assessed as early apoptotic cells at 10 uM incubated for 48 hrs by AnnexinV-FITC/propidium iodide staining based flow cytometry (reference value: 0.74%); assay type: functional
NCI-H460 [20] = test: Induction of apoptosis in human NCI-H460 cells assessed as viable cells at 10 uM incubated for 12 hrs by AnnexinV-FITC/propidium iodide staining based flow cytometry (reference value: 90.4%); assay type: functional; conditions: read-out: Activity
NCI-H460 [21] = test: Induction of morphological changes in human NCI-H460 cells assessed as roughness of cell membrane at 10 uM measured after 24 hrs by Hoechst 33342 staining based assay; assay type: functional
NCI-H460 [22] = test: Induction of apoptosis in human NCI-H460 cells assessed as late apoptotic cells at 10 uM incubated for 36 hrs by AnnexinV-FITC/propidium iodide staining based flow cytometry (reference value: 7.54%); assay type: functional
NCI-H460 [23] = test: Induction of cell cycle arrest in human NCI-H460 cells assessed as accumulation at sub G2/M phase at 10 uM after 12 hrs by flow cytometric analysis (reference value: 9.8%); assay type: functional
NCI-H460 [24] = test: Induction of apoptosis in human NCI-H460 cells assessed as viable cells at 10 uM incubated for 24 hrs by AnnexinV-FITC/propidium iodide staining based flow cytometry (reference value: 90.4%); assay type: functional; conditions: read-out: Activity
NCI-H460 [25] = test: Induction of morphological changes in human NCI-H460 cells assessed as chromatin condensation at 10 uM measured after 24 hrs by Hoechst 33342 staining based assay; assay type: functional, cell-based
NCI-H460 [26] = test: Induction of apoptosis in human NCI-H460 cells assessed as early apoptotic cells at 10 uM incubated for 36 hrs by AnnexinV-FITC/propidium iodide staining based flow cytometry (reference value: 0.74%); assay type: functional
NCI-H460 [27] = test: Induction of apoptosis in human NCI-H460 cells assessed as necrotic cells at 10 uM incubated for 24 hrs by AnnexinV-FITC/propidium iodide staining based flow cytometry (reference value: 1.28%); assay type: functional
NCI-H460 [28] = test: Induction of cell cycle arrest in human NCI-H460 cells assessed as accumulation at sub G0/G1 phase at 10 uM after 24 hrs by flow cytometric analysis (reference value: 64.5%); assay type: functional
NCI-H460 [29] = test: Induction of apoptosis in human NCI-H460 cells assessed as viable cells at 10 uM incubated for 36 hrs by AnnexinV-FITC/propidium iodide staining based flow cytometry (reference value: 90.4%); assay type: functional; conditions: read-out: Activity
NCI-H460 [30] = test: Induction of apoptosis in human NCI-H460 cells assessed as necrotic cells at 10 uM incubated for 48 hrs by AnnexinV-FITC/propidium iodide staining based flow cytometry (reference value: 1.28%); assay type: functional
NCI-H460 [31] = test: Reversal of cell death in human NCI-H460 cells at up to 40 uM measured after 24 hrs by in presence of FeCl3; assay type: functional, cell-based
NCI-H460 [32] = test: Induction of cell cycle arrest in human NCI-H460 cells assessed as increase in activated gammaH2AX expression at 10 uM after 24 hrs by Western blot analysis; assay type: functional, cell-based
NCI-H460 [33] = test: Induction of apoptosis in human NCI-H460 cells assessed as increase in Caspase 3 activity at 10 uM measured by Western blot analysis; assay type: functional, cell-based; conditions: time <= 48.0 hrs, TDE = time-dependent effect
NCI-H460 [34] = test: Induction of apoptosis in human NCI-H460 cells assessed as decrease in PARP measured upto 48 hrs by Western blot analysis; assay type: functional, cell-based; conditions: TDE = time-dependent effect
NCI-H226 [35] = test: Reversal of cell death in human NCI-H226 cells at up to 40 uM measured after 24 hrs by in presence of FeCl3; assay type: functional, cell-based
HEK-293T = test: Cytotoxicity against human HEK293T cells up to 100 uM assessed as reduction in cell viability incubated for 48 hrs by CCK8 assay; assay type: cell-based
NCI-H460 [36] = test: Induction of cell cycle arrest in human NCI-H460 cells assessed as accumulation at sub G0/G1 phase at 10 uM after 12 hrs by flow cytometric analysis (reference value: 64.5%); assay type: functional
NCI-H460 [37] = test: Induction of apoptosis in human NCI-H460 cells assessed as necrotic cells at 10 uM incubated for 24 hrs in presence of FeCl3 by AnnexinV-FITC/propidium iodide staining based flow cytometry (reference value: 2.4%); assay type: functional
NCI-H460 [38] = test: Upregulation of TfR1 level in human NCI-H460 cells at 10 uM by Western blot analysis; assay type: functional, cell-based
NCI-H460 [39] = test: Induction of apoptosis in human NCI-H460 cells assessed as late apoptotic cells at 10 uM incubated for 24 hrs by AnnexinV-FITC/propidium iodide staining based flow cytometry (reference value: 7.54%); assay type: functional
NCI-H460 [40] = test: Induction of cell cycle arrest in human NCI-H460 cells assessed as accumulation at sub G2/M phase at 10 uM after 24 hrs by flow cytometric analysis (reference value: 9.8%); assay type: functional
NCI-H460 [41] = test: Induction of apoptosis in human NCI-H460 cells assessed as increase in Bax at 10 uM measured by Western blot analysis; assay type: functional, cell-based
NCI-H460 [42] = test: Induction of cell cycle arrest in human NCI-H460 cells assessed as decrease in cyclin D1 expression at 10 uM after 24 hrs by Western blot analysis; assay type: functional, cell-based
NCI-H460 [43] = test: Induction of cell cycle arrest in human NCI-H460 cells assessed as accumulation at […] at 10 uM after 24 hrs by flow cytometric analysis (reference value: 25.7%); assay type: functional
NCI-H460 [44] = test: Induction of apoptosis in human NCI-H460 cells assessed as viable cells at 10 uM incubated for 24 hrs in presence of FeCl3 by AnnexinV-FITC/propidium iodide staining based flow cytometry (reference value: 89.5%); assay type: functional; conditions: read-out: Activity
NCI-H460 [45] = test: Induction of apoptosis in human NCI-H460 cells assessed as early apoptotic cells at 10 uM incubated for 24 hrs by AnnexinV-FITC/propidium iodide staining based flow cytometry (reference value: 0.74%); assay type: functional
NCI-H460 [46] = test: Cytotoxicity against human NCI-H460 cells assessed as reduction in cell viability at 5 uM incubated for 48 hrs by CCK8 assay; assay type: functional, cell-based
NCI-H460 [47] = test: Induction of apoptosis in human NCI-H460 cells assessed as viable cells at 10 uM incubated for 48 hrs by AnnexinV-FITC/propidium iodide staining based flow cytometry (reference value: 90.4%); assay type: functional; conditions: read-out: Activity

O=C(O)c1ccc(-n2nc(-c3ccccc3O)nc2-c2ccccc2O)cc1 [DEFERASIROX]
IC50 (NCI-H460 [1]): 98.4 µM | IC50 (NCI-H460 [2]): 20.4 µM

CC(=O)O[C@H]1C(=O)[C@@]2(C)[C@H]([C@H](OC(=O)c3ccccc3)[C@]3(O)C[C@H](OC(=O)[C@H](O)[C@@H](NC(=O)c4ccccc4)c4ccccc4)C(C)=C1C3(C)C)[C@]1(OC(C)=O)CO[C@@H]1C[C@@H]2O
Activity (NCI-H1299 [3]): inactive | Activity (NCI-H226 [4]): inactive | Activity (NCI-H460 [5]): inactive

CC[C@H]1Oc2ccn(O)c(=O)c2[C@H]2[C@H](C)C[C@H](C)C[C@]12C
Activity (NCI-H460 [6]): 2.93% | Activity (NCI-H460 [7]): Tde | Activity (MRC5): Toxic | Activity (NCI-H460 [8]): 3.92% | Activity (NCI-H460 [9]): 57.9% | Activity (NCI-H460 [10]): 9.5% | Activity (NCI-H460 [11]): Active | Activity (NCI-H1299 [3]): inactive | Activity (NCI-H460 [12]): 1.7% | Activity (NCI-H460 [13]): 0.75% | Activity (NCI-H460 [14]): Active | Activity (NCI-H1299 [15]): Active | Activity (NCI-H460 [16]): 25.9% | Activity (NCI-H460 [17]): Active | Activity (NCI-H460 [18]): 4.43% | Activity (NCI-H460 [19]): 4.51% | Activity (NCI-H226 [4]): inactive | viability at 10 µM (NCI-H460 [20]): 86.3% | Activity (NCI-H460 [21]): Active | Activity (NCI-H460 [22]): 35.7% | Activity (NCI-H460 [23]): 2.2% | viability at 10 µM (NCI-H460 [24]): 75.6% | Activity (NCI-H460 [25]): Active | Activity (NCI-H460 [5]): inactive | Activity (NCI-H460 [26]): 4.29% | Activity (NCI-H460 [27]): 2.44% | Activity (NCI-H460 [28]): 73.9% | viability at 10 µM (NCI-H460 [29]): 56.1% | Activity (NCI-H460 [30]): 3.4% | Activity (NCI-H460 [31]): Active | Activity (NCI-H460 [32]): Active | IC50 (NCI-H460 [1]): 4.94 µM | Activity (NCI-H460 [33]): Tde | Activity (NCI-H460 [34]): Tde | Activity (NCI-H226 [35]): Active | Activity (HEK-293T): Toxic | Activity (NCI-H460 [36]): 71.8% | Activity (NCI-H460 [37]): 1.01% | Activity (NCI-H460 [38]): Active | IC50 (NCI-H460 [2]): 1.76 µM | Activity (NCI-H460 [39]): 15.7% | Activity (NCI-H460 [40]): 0.8% | Activity (NCI-H460 [41]): Active | Activity (NCI-H460 [42]): Active | Activity (NCI-H460 [43]): 26% | viability at 10 µM (NCI-H460 [44]): 93.8% | Activity (NCI-H460 [45]): 6.27% | Activity (NCI-H460 [46]): Dose-dependent effect | viability at 10 µM (NCI-H460 [47]): 34.2%
